The values that follow come from patent US7825114B2, “Substituted aminopyrazolopyridines and salts thereof, pharmaceutical compositions comprising same, methods of preparing same and uses of same” (Bayer Schering Pharma AG, priority 2006, dated 2010).

For one assay, the target named is T1, human c-kit (Homo sapiens, UniProt P10721).
T1 construct: GST-tagged recombinant kinase domain of the human c-kit; GST; host or cells: SF-9 insect cells
In words: cKIT-Kinase HTRF-Assay (assay 4). The settings on record: for IC50: GST-tagged kinase domain of human c-kit, 10 μM ATP; for Selectivity vs. cKit: IC50 assay 4/IC50 assay 2. Type of assay: biochemical. The protocol:
Assay 4: cKIT-Kinase HTRF-Assay
c-Kit-inhibitory activity of compounds of the present invention was quantified employing the c-kit HTRF assay as described in the following paragraphs. GST-tagged recombinant kinase domain of the human c-kit expressed in SF-9 cells was used as kinase. As substrate for the kinase reaction biotinylated poly-(Glu,Tyr) (Cis biointernational, France) was used.
c-Kit was incubated for 30 min at 22° C. in the presence of different concentrations of test compounds in 5 μl assay buffer [50 mM Hepes/NaOH pH 7.0, 1 mM MgCl2, 5 mM MnCl2, 1.0 mM dithiothreitol, 0.1 mM sodium ortho-vanadate, 10 μM adenosine-tri-phosphate (ATP), 1.3 μg/ml substrate, 0.001% (v/v) Nonidet-P40 (Sigma), 1% (v/v) dimethylsulfoxide]. The concentration of c-kit was adjusted depending of the activity of the enzyme lot and was chosen appropriate to have the assay in the linear range. The reaction was stopped by the addition of 5 μl of a solution of HTRF detection reagents (0.1 μM streptavidine-XLent and 1 nM PT66-Eu-Chelate, an europium-chelate labelled anti-phospho-tyrosine antibody from Perkin Elmer) in an aqueous EDTA-solution (80 mM EDTA, 0.2% (w/v) bovine serum albumin in 50 mM HEPES/NaOH pH 7.0).
(§1) The resulting mixture was incubated 1 h at 22° C. to allow the binding of the biotinylated phosphorylated peptide to the streptavidine-XLent and the PT66-Eu-Chelate. Subsequently the amount of phosphorylated substrate was evaluated by measurement of the resonance energy transfer from the PT66-Eu-Chelate to the streptavidine-XLent. Therefore, the fluorescence emissions at 620 nm and 665 nm after excitation at 350 nm was measured in a HTRF reader, e.g. a Rubystar (BMG Labtechnologies, Offenburg, Germany) or a Viewlux (Perkin-Elmer). The ratio of the emissions at 665 nm and at 622 nm was taken as the measure for the amount of phosphorylated substrate.
(In general: TR-FRET usually uses a lanthanide donor and a delayed reading to cut background.)

Assay [1] has as its target T2, Tie2 (Homo sapiens, UniProt Q02763). The assay is described as follows: Tie2 ELISA assay (assay 1): cellular Tie2 autophosphorylation. Format: cell-based. Also on record: expressed in transfected cells; host or cells: CHO (DHFR-deficient), stably transfected. The settings on record: CHO cells stably transfected with Tie2, stimulated by angiopoietin-2; Tie2 autophosphorylation by sandwich-ELISA; read-out: Tie 2 activity (assay 1). As to the method:
Assay 1: Tie2 ELISA Assay
Cellular activity of compounds of the present invention as inhibitors of Tie2 kinase activity was measured employing a Tie2 ELISA assay as described in the following paragraphs. Herein CHO cell-cultures, which are stably transfected by known techniques with Tie2 using DHFR deficiency as selection marker, are stimulated by angiopoietin-2. The specific autophosphorylation of Tie2 receptors is quantified with a sandwich-ELISA using anti-Tie2 antibodies for catch and anti-phosphotyrosine antibodies coupled to HRP for detection. […]
Target sequence in this assay (Q02763 23-1124): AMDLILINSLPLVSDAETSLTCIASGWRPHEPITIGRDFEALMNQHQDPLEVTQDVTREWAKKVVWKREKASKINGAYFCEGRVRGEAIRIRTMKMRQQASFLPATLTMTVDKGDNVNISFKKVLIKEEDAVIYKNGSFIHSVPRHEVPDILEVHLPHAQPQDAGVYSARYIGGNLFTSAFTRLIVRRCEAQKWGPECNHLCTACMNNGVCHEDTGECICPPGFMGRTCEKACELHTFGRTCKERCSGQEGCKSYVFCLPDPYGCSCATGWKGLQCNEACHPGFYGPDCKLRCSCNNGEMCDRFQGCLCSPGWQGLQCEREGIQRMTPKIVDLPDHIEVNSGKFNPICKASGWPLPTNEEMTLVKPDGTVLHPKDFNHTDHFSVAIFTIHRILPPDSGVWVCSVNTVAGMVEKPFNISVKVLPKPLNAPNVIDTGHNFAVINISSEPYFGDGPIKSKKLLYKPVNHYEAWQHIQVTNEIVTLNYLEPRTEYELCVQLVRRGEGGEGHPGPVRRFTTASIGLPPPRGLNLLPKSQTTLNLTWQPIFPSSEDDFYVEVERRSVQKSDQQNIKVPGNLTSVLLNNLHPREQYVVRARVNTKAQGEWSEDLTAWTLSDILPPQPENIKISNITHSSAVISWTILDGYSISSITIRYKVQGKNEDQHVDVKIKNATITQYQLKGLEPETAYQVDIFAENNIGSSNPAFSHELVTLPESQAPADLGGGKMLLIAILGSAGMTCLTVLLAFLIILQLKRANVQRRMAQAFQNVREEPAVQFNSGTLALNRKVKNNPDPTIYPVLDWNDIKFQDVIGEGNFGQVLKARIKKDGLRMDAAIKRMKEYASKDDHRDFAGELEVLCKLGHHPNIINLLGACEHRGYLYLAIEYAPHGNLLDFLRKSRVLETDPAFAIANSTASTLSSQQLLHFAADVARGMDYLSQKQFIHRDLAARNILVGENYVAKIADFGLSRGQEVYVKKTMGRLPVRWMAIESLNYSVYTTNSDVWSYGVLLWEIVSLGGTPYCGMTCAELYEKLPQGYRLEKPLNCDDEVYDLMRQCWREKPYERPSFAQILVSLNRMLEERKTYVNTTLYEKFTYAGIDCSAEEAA
A general note: In an ELISA, binding on a coated surface is turned into a signal by an enzyme label.

The target in assay [2] is T2, Tie2. In words: Tie-2-Kinase HTRF-Assay without kinase preactivation (assay 2). Type of assay: biochemical. Also on record: A recombinant fusion protein of GST and the intracellular domains of Tie-2; GST; made in house; host or cells: insect cells (Hi-5). As to conditions: GST-Tie-2 intracellular domains, no preactivation, 10 μM ATP.
Text: Assay 2: Tie-2-Kinase HTRF-Assay without Kinase Preactivation
Tie2-inhibitory activity of compounds of the present invention was quantified employing two Tie2 HTRF assay as described in the following paragraphs.
A recombinant fusion protein of GST and the intracellular domains of Tie-2, expressed in insect cells (Hi-5) and purified by Glutathion-Sepharose affinity chromatography was used as kinase. Alternatively, commercially available GST-Tie2-fusion protein (Upstate Biotechnology, Dundee, Scotland) can be used As substrate for the kinase reaction the biotinylated peptide biotin-Ahx-[…] (C-terminus in amid form) was used which can be purchased e.g. from the company Biosynthan GmbH (Berlin-Buch, Germany). Detection of phosphorylated product is achieved specifically by a trimeric detection complex consisting of the phosphorylated substrate, streptavidin-XLent (SA-XLent) which binds to biotin, and Europium Cryptate-labeled anti-phosphotyrosine antibody PT66 which binds to phosphorylated tyrosine.
The reaction was stopped by the addition of 5 μl of an aqueous buffer (25 mM Hepes/NaOH pH 7.5, 0.28% (w/v) bovine serum albumin) containing EDTA (90 mM) and the HTRF (Homogeneous Time Resolved Fluorescence) detection reagents streptavidine-XLent (0.2 μM, from Cis Biointernational, Marcoule, France) and PT66-Eu-Chelate (0.3 ng/μl; a europium-chelate labelled anti-phospho-tyrosine antibody from Perkin Elmer).
as §1, with “substrate peptide” for “substrate”, “substrate peptide.” for “substrate.”
Target sequence in this assay (Q02763 770-1124 limits assumed): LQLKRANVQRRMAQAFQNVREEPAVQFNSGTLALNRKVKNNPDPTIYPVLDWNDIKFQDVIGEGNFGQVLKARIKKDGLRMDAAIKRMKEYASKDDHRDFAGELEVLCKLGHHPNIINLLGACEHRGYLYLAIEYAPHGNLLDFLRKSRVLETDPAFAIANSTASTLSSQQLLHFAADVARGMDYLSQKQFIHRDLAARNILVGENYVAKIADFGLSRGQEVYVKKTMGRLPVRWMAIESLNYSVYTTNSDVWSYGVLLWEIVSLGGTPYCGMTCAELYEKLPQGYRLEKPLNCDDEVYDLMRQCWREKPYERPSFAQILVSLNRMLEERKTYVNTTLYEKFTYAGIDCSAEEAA

Assay [3] concerns Tie2 vs. KDR. The settings on record: Albert et al. Mol. Cancer. Ther. 2006, 5, 995; cited from earlier work.
Assay [4] deals with Tie2 vs. KDR. The settings on record: Albert et al. Mol. Cancer. Ther. 2006, 5, 995; cited from earlier work. This is another data set of the same source.

T1 sequence (P10721 589-937 limits assumed): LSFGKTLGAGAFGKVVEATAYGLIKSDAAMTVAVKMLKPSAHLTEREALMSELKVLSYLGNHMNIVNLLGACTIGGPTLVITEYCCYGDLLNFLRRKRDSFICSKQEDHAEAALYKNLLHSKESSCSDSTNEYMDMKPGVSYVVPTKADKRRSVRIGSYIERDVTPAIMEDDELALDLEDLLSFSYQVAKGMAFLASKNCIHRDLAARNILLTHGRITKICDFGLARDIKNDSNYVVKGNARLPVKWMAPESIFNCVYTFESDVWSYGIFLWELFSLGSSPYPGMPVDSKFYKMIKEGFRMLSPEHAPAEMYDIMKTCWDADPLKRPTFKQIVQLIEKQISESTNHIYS

As for `Cn1nc(N)c2c(-c3ccc(NC(=O)Nc4cccc(C(F)(F)F)c4)cc3)cc(C3(C(=O)N4CCCC4)CC3)nc21` [Example 1.13, 1-(4-{3-Amino-1-methyl-6-[1-(pyrrolidine-1-carbonyl)-cyclopropyl]-1H-pyrazolo[3,4-b]pyridin-4-yl}-phenyl)-3-(3-trifluoromethyl-phenyl)-urea], the IC50 at human c-kit was 1000 to 10000 nM; at Tie2 [1], not above 100 nM; on Tie2 [2], not above 100 nM. At human c-kit, the “Selectivity vs. cKit” value is reported as more than 100.
Regarding `Cn1nc(N)c2c(-c3ccc(NC(=O)Nc4cccc(C(F)(F)F)c4)cc3)cc(C3(C(=O)NCCO)CC3)nc21` [Example 1.14, 1-(3-Amino-1-methyl-4-{4-[3-(3-trifluoromethyl-phenyl)-ureido]-phenyl}-1H-pyrazolo[3,4-b]pyridin-6-yl)-cyclopropanecarboxylic acid (2-hydroxy-ethyl)-amide], the IC50 against human c-kit was 100 to 1000 nM; at Tie2 [1] it was 100 to 1000 nM; on Tie2 [2], not above 100 nM. For the same compound, the “Selectivity vs. cKit” value at human c-kit came to 11.
Consider `Cn1nc(N)c2c(-c3ccc(NC(=O)Nc4cccc(C(F)(F)F)c4)cc3)cc(C3(C(N)=O)CC3)nc21` [Example 2.1, 1-(3-Amino-1-methyl-4-{4-[3-(3-trifluoromethyl-phenyl)-ureido]-phenyl}-1H-pyrazolo[3,4-b]pyridin-6-yl)-cyclopropanecarboxylic acid amide], for which the IC50 against human c-kit is 100 to 1000 nM; at Tie2 [1] it was not above 100 nM; on Tie2 [2], not above 100 nM. For the same compound, the “Selectivity vs. cKit” value on human c-kit is reported as 6.
As for `Cc1ccc(F)c(NC(=O)Nc2ccc(-c3cc(C4(C(=O)N5CCCC5)CC4)nc4c3c(N)nn4C)cc2)c1` [Example 4.3], the IC50 against human c-kit was 1000 to 10000 nM; at Tie2 [1], not above 100 nM; on Tie2 [2], not above 100 nM. Further, the “Selectivity vs. cKit” value at human c-kit is given as more than 100.
`Cc1ccc(F)c(NC(=O)Nc2ccc(-c3cc(C4(C(=O)N(C)C)CC4)nc4c3c(N)nn4C)cc2)c1` [Example 4.4, 1-(3-Amino-4-{4-[3-(2-fluoro-5-methyl-phenyl)-ureido]-phenyl}-1-methyl-1H-pyrazolo[3,4-b]pyridin-6-yl)-cyclopropanecarboxylic acid dimethylamide]: the IC50 was 1000 to 10000 nM against human c-kit, not above 100 nM at Tie2 [1] and not above 100 nM on Tie2 [2]. Besides, on human c-kit, the “Selectivity vs. cKit” value is given as 15.
Turning to `Cn1nc(N)c2c(-c3ccc(NC(=O)Nc4cccc(C(F)(F)F)c4)cc3)cc(C3CCC3)nc21` [Example 6.1, 1-[4-(3-Amino-6-cyclobutyl-1-methyl-1H-pyrazolo[3,4-b]pyridin-4-yl)-phenyl]-3-(3-trifluoromethyl-phenyl)-urea], the values for the IC50 on human c-kit, at Tie2 [1] and at Tie2 [2] were 1000 to 10000 nM, not above 100 nM and not above 100 nM, respectively. For the same compound, the “Selectivity vs. cKit” value at human c-kit was found to be 20.
On to `Cn1nc(N)c2c(-c3ccc(NC(=O)Nc4cccc(C(F)(F)F)c4)cc3)cc(C3CCCCC3)nc21` [Example 7.1, 1-[4-(3-Amino-6-cyclohexyl-1-methyl-1H-pyrazolo[3,4-b]pyridin-4-yl)-phenyl]-3-(3-trifluoromethyl-phenyl)-urea], for which the IC50 at human c-kit is 100 to 1000 nM; at Tie2 [1], not above 100 nM; at Tie2 [2] it was not above 100 nM. Further, the “Selectivity vs. cKit” value at human c-kit was found to be 9.
As to `COC(=O)C[C@@H]1C[C@H](c2cc(-c3ccc(NC(=O)Nc4cccc(C(F)(F)F)c4)cc3)c3c(N)nn(C)c3n2)C1(C)C` [Example 8.2, [3-(3-Amino-1-methyl-4-{4-[3-(3-trifluoromethyl-phenyl)-ureido]-phenyl}-1H-pyrazolo[3,4-b]pyridin-6-yl)-2,2-dimethyl-cyclobutyl]-acetic acid methyl ester], the IC50 on human c-kit is 1000 to 10000 nM; at Tie2 [1], not above 100 nM; at Tie2 [2], not above 100 nM. Further, the “Selectivity vs. cKit” value at human c-kit is 30.
For the compound `Cc1ccc(F)c(NC(=O)Nc2ccc(-c3cccc4[nH]nc(N)c34)cc2)c1` [PA1, 1-[4-(3-Amino-1H-indazol-4-yl)-phenyl]-3-(2-fluoro-5-methyl-phenyl)-urea], in the assay with Tie2 vs. KDR [3], the “times less active against Tie2 vs. KDR in enzymatic assays” value is on record as approximately 40 times. In addition, in the assay with Tie2 vs. KDR [4], the “times less active against Tie2 than KDR in cellular assays” value was approximately 1000 times.
With `Nc1n[nH]c2nccc(-c3ccc(NC(=O)Nc4cccc(C(F)(F)F)c4)cc3)c12` [PA2, 1-[4-(3-Amino-1H-pyrazolo[3,4-b]pyridin-4-yl)-phenyl]-3-(3-trifluoromethyl-phenyl)-urea, reference compound], the IC50 on human c-kit, on Tie2 [1] and on Tie2 [2] was not above 100 nM in each case. For the same compound, on human c-kit, the “Selectivity vs. cKit” value is listed as 0.67.
On to `Cc1ccc(F)c(NC(=O)Nc2ccc(-c3ccnc4[nH]nc(N)c34)cc2)c1` [PA3, 1-[4-(3-Amino-1H-pyrazolo[3,4-b]pyridin-4-yl)-phenyl]-3-(2-fluoro-5-methyl-phenyl)-urea, reference compound], for which the IC50 was not above 100 nM against human c-kit, 100 to 1000 nM on Tie2 [1] and not above 100 nM at Tie2 [2]. Besides, the “Selectivity vs. cKit” value on human c-kit worked out at 0.26.
Take `Cn1nc(N)c2c(-c3ccc(NC(=O)Nc4cccc(C(F)(F)F)c4)cc3)ccnc21` [PA4, 1-[4-(3-Amino-1-methyl-1H-pyrazolo[3,4-b]pyridin-4-yl)-phenyl]-3-(3-trifluoromethyl-phenyl)-urea, reference compound]: the values for the IC50 against human c-kit, on Tie2 [1] and at Tie2 [2] were 100 to 1000 nM, not above 100 nM and not above 100 nM, respectively. Besides, the “Selectivity vs. cKit” value at human c-kit is 1.6.
On to `Cc1ccc(F)c(NC(=O)Nc2ccc(-c3ccnc4c3c(N)nn4C)cc2)c1` [PA5, 1-[4-(3-Amino-1-methyl-1H-pyrazolo[3,4-b]pyridin-4-yl)-phenyl]-3-(2-fluoro-5-methyl-phenyl)-urea, reference compound], for which the IC50 is not above 100 nM at human c-kit, not above 100 nM on Tie2 [1] and 100 to 1000 nM on Tie2 [2]. Further, the “Selectivity vs. cKit” value on human c-kit worked out at 0.5.
As to `Cn1nc(N)c2c(-c3ccc(NC(=O)Nc4ccccc4)cc3)ccnc21` [PA6, 1-[4-(3-Amino-1-methyl-1H-pyrazolo[3,4-b]pyridin-4-yl)-phenyl]-3-phenyl-urea, reference compound], the IC50 at human c-kit was not above 100 nM; at Tie2 [1], 1000 to 10000 nM; at Tie2 [2], 1000 to 10000 nM. The “Selectivity vs. cKit” value on human c-kit worked out at 0.06.
